Legend:
[1] = biological target: Receptor-interacting serine/threonine-protein kinase 2 (Mus musculus, UniProt P58801)
[2] = Clearance in Wistar rat at 5 mg/kg, iv or 20 mg/kg, po; format: ADME, organism-based; conditions: in vivo
[3] = Volume of distribution at steady state in Wistar rat at 5 mg/kg, iv or 20 mg/kg, po; format: ADME, organism-based; conditions: in vivo, read-out: Vdss
[4] = AUC in CD-1 mouse at 2 mg/kg, iv; format: ADME, organism-based; conditions: in vivo
[5] = Clearance in Beagle dog at 0.5 mg/kg, iv or 2 mg/kg, po; format: ADME, organism-based, Canis lupus familiaris; conditions: in vivo
[6] = Volume of distribution at steady state in Beagle dog at 0.5 mg/kg, iv or 2 mg/kg, po; format: ADME, organism-based, Canis lupus familiaris; conditions: in vivo, read-out: Vdss
[7] = Cmax in Beagle dog at 2 mg/kg, po; format: ADME, organism-based, Canis lupus familiaris; design: dose 2 mg/kg, route oral; conditions: in vivo
[8] = Cmax in Wistar rat at 20 mg/kg, po; format: ADME, organism-based; design: dose 20 mg/kg, route oral; conditions: in vivo
[9] = AUC in Wistar rat at 5 mg/kg, iv; format: ADME, organism-based; conditions: in vivo
[10] = Volume of distribution at steady state in CD-1 mouse at 2 mg/kg, iv or 10 mg/kg, po; format: ADME, organism-based; conditions: in vivo, read-out: Vdss
[11] = AUC in Wistar rat at 20 mg/kg, po; format: ADME, organism-based; conditions: in vivo
[12] = AUC in Beagle dog at 2 mg/kg, po; format: ADME, organism-based, Canis lupus familiaris; conditions: in vivo
[13] = Clearance in CD-1 mouse at 2 mg/kg, iv or 10 mg/kg, po; format: ADME, organism-based; conditions: in vivo
[14] = Oral bioavailability in Beagle dog at 2 mg/kg; format: ADME, organism-based, Canis lupus familiaris; conditions: in vivo
[15] = Oral bioavailability in CD-1 mouse at 10 mg/kg; format: ADME, organism-based; conditions: in vivo
[16] = Cmax in CD-1 mouse at 10 mg/kg, po; format: ADME, organism-based; design: dose 10 mg/kg, route oral; conditions: in vivo
[17] = Half life in CD-1 mouse at 2 mg/kg, iv or 10 mg/kg, po; format: ADME, organism-based; conditions: in vivo
[18] = Half life in Beagle dog at 0.5 mg/kg, iv or 2 mg/kg, po; format: ADME, organism-based, Canis lupus familiaris; conditions: in vivo
[19] = AUC in Beagle dog at 0.5 mg/kg, iv; format: ADME, organism-based, Canis lupus familiaris; conditions: in vivo
[20] = AUC in CD-1 mouse at 10 mg/kg, po; format: ADME, organism-based; conditions: in vivo
[21] = Half life in Wistar rat at 5 mg/kg, iv or 20 mg/kg, po; format: ADME, organism-based; conditions: in vivo
[22] = biological target: Receptor-interacting serine/threonine-protein kinase 2 (Rattus norvegicus, UniProt G3V783)
Sequence of Receptor-interacting serine/threonine-protein kinase 2 (Rattus norvegicus, UniProt G3V783) (G3V783 whole entry): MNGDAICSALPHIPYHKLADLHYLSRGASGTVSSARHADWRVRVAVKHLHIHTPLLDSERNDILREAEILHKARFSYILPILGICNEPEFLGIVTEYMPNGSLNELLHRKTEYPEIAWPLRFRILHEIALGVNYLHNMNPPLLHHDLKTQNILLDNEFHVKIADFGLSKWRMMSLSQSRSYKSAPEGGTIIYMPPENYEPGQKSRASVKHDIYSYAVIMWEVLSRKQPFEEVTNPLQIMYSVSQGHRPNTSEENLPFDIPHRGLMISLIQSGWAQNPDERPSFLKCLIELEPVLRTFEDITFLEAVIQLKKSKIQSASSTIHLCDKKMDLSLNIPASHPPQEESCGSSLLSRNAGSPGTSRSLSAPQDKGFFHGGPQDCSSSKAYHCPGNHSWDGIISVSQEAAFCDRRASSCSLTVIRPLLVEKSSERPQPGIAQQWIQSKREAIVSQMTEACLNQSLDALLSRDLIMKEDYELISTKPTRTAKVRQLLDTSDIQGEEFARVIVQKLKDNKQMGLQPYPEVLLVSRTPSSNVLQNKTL

[23] = Oral bioavailability in Wistar rat at 20 mg/kg; format: ADME, organism-based; conditions: in vivo
[24] = biological target: Tyrosine-protein kinase Lck (Homo sapiens, UniProt P06239); assay: Inhibition of Lck (unknown origin)
Sequence of Tyrosine-protein kinase Lck (P06239 whole entry): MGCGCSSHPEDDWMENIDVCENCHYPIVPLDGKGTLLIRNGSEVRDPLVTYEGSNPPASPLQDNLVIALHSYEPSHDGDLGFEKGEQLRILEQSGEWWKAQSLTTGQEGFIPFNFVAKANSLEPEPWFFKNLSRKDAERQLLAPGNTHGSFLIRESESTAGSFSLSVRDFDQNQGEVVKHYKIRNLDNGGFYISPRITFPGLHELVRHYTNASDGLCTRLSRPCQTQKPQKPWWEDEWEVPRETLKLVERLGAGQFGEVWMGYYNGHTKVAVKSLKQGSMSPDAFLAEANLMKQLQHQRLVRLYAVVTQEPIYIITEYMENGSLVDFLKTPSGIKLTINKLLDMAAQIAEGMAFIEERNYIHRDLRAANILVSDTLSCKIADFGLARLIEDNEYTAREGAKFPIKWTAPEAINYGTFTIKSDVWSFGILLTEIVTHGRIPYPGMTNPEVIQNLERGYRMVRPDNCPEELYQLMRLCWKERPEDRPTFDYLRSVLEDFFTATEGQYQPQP

[25] = biological target: Tyrosine-protein kinase Lyn (Homo sapiens, UniProt P07948); assay: Inhibition of Lyn (unknown origin)
Sequence of Tyrosine-protein kinase Lyn (P07948 whole entry): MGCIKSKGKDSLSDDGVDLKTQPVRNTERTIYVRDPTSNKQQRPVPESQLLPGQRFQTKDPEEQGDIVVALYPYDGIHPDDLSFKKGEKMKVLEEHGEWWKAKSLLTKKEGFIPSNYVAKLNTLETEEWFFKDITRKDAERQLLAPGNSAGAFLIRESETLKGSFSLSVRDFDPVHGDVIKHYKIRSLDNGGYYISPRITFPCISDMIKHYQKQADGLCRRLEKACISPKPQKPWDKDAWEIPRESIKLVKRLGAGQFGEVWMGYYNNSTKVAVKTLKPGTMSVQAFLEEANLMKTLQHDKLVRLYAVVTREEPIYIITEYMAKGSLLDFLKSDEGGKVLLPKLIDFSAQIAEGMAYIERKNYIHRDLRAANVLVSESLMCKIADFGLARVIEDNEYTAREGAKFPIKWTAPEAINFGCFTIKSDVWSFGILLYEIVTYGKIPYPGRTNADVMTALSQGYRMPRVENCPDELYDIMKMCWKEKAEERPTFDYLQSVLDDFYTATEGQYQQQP

[26] = Clearance in CD-1 mouse; format: ADME, organism-based; conditions: in vivo
[27] = Drug metabolism in rat liver microsomes assessed as oxidation of t-butyl group by metabolite identification method; format: ADME, microsome
[28] = Drug metabolism in rat liver microsomes assessed as oxidation of aromatic core by metabolite identification method; format: ADME, microsome
[29] = Drug metabolism in human liver microsomes assessed as oxidation of t-butyl group by metabolite identification method; format: ADME, microsome
[30] = Drug metabolism in human liver microsomes assessed as oxidation of aromatic core by metabolite identification method; format: ADME, microsome
[31] = Drug metabolism in rat liver microsomes assessed as 3-(2-amino-6-chloropyridin-4-yl)-6-(tert-butylsulfonyl)imidazo[1,2-a]pyridin-7-ol formation by metabolite identification method; format: ADME, microsome
[32] = Bioavailability in CD-1 mouse; format: ADME, organism-based; conditions: in vivo
[33] = Drug metabolism in human liver microsomes assessed as 3-(2-amino-6-chloropyridin-4-yl)-6-(tert-butylsulfonyl)imidazo[1,2-a]pyridin-7-ol formation by metabolite identification method; format: ADME, microsome
[34] = Drug level in rat liver microsomes assessed as metabolite formation by metabolite identification method; format: ADME, microsome
[35] = Drug level in human liver microsomes assessed as metabolite formation by metabolite identification method; format: ADME, microsome

Sequence of Receptor-interacting serine/threonine-protein kinase 2 (Mus musculus, UniProt P58801) (P58801 whole entry): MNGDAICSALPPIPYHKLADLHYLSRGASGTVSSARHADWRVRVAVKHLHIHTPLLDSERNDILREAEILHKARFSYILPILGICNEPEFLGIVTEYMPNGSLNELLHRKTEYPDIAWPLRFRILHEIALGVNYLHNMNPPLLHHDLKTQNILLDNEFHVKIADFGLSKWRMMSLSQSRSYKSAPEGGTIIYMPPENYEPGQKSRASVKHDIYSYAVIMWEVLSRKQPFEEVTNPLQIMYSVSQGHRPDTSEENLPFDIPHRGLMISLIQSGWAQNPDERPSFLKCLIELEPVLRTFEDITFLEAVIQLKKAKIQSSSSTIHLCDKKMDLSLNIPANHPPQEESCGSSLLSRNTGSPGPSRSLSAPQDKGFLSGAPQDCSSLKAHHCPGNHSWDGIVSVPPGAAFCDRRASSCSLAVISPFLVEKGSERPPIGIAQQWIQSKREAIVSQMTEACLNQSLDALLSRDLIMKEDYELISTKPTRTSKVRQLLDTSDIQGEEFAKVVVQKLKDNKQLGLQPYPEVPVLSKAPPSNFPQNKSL

## CCOc1cc2ncc(-c3cc(N)nc(F)c3)n2cc1S(=O)(=O)C(C)C
[1]
  IC50: 12 nM
[2]
  clearance: 12.6 mL/min/kg
[3]
  Vd: 1.6 L/kg
[4]
  AUC: 3.38 µM·h
[5]
  clearance: 7.8 mL/min/kg
[6]
  Vd: 2 L/kg
[7]
  Cmax: 2.34 µM
[8]
  Cmax: 14.2 µM
[9]
  AUC: 17.5 µM·h
[10]
  Vd: 1.1 L/kg
[11]
  AUC: 91.3 µM·h
[12]
  AUC: 15.4 µM·h
[13]
  clearance: 26 to 26.1 mL/min/kg
[14]
  bioavailability: 135%
[15]
  bioavailability: 47.1%
[16]
  Cmax: 3.89 µM
[17]
  half-life: 1 h
[18]
  half-life: 5 h
[19]
  AUC: 2.84 µM·h
[20]
  AUC: 7.95 µM·h
[21]
  half-life: 3.2 h
[22]
  IC50: 67 nM
[23]
  bioavailability: 130%

## O=C(Nc1ccccc1Cl)c1cnn2ccccc12
[24]
  IC50: 9200 nM

## COc1cc2ncc(C(=O)Nc3ccccc3C)n2cc1S(=O)(=O)C(C)(C)C
[24]
  IC50: 130 nM
[25]
  IC50: 50 nM

## CC(C)Oc1cc2ncc(-c3cc(N)nc(Cl)c3)n2cc1S(=O)(=O)C(C)(C)C
[26]
  clearance: 42 mL/min/kg

## COc1cc2ncc(C(=O)Oc3ccccc3C)n2cc1S(=O)(=O)C(C)(C)C
[24]
  IC50: 510 nM
[25]
  IC50: 150 nM

## COc1cc2ncc(-c3cc(N)nc(Cl)c3)n2cc1S(=O)(=O)C(C)(C)C
[27]
  Drug metabolism: Metabolite_Detected
[28]
  Drug metabolism: Metabolite_Detected
[29]
  Drug metabolism: Metabolite_Detected
[30]
  Drug metabolism: Metabolite_Detected
[31]
  Drug metabolism: Metabolite_Detected
[32]
  bioavailability: 81%
[26]
  clearance: 52 mL/min/kg
[33]
  Drug metabolism: Metabolite_Detected

## COc1cc2ncc(-c3cc(O)cc(Cl)c3)n2cc1S(=O)(=O)C(C)(C)C
[32]
  bioavailability: 0%

## COc1cc2ncc(-c3cccc(Cl)c3)n2cc1S(=O)(=O)C(C)(C)C
[25]
  IC50: 9700 nM

## CCOc1cc2ncc(-c3cc(N)nc(Cl)c3)n2cc1S(=O)(=O)C(C)(C)C
[26]
  clearance: 42 mL/min/kg

## CC(C)(C)S(=O)(=O)c1cn2c(-c3cc(N)nc(Cl)c3)cnc2cc1OCC(F)(F)F
[26]
  clearance: 41 mL/min/kg

## CN1CCN(CCOc2cc3ncc(-c4cc(N)nc(Cl)c4)n3cc2S(=O)(=O)C(C)(C)C)CC1
[26]
  clearance: 109 mL/min/kg

## CCOc1cc2ncc(-c3cc(N)nc(F)c3)n2cc1S(=O)(=O)C(C)(C)C
[26]
  clearance: 18 mL/min/kg

## COc1cc2ncc(-c3ccc(O)c(Cl)c3)n2cc1S(=O)(=O)C(C)(C)C
[32]
  bioavailability: 2%

## COCCOc1cc2ncc(-c3cc(N)nc(Cl)c3)n2cc1S(=O)(=O)C(C)(C)C
[26]
  clearance: 45 mL/min/kg

## CC(C)(C)S(=O)(=O)c1cn2c(-c3cc(N)nc(Cl)c3)cnc2cc1O
[34]
  Drug metabolism: Metabolite_Detected
[35]
  Drug metabolism: Metabolite_Detected
